Experimental findings from ChEMBL document CHEMBL1201862, “PubChem BioAssay data set” (2004) are described below.

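Cells were grown in 96-well plates and exposed to each compound for 48 hours at five concentrations; endpoints were interpolated linearly between bracketing concentrations, or set to the highest concentration if not reached. Abbreviation: GI50, concentration required for 50% inhibition of growth.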 The source made the active and inactive calls. Rule as the data show it: active = GI50 up to about 1.1 µM and inactive = higher. Some results are limits rather than exact numbers.

Test systems include A549; ACHN; EKVX; HT-29; M14; MCF7; NCI-H226; NCI-H23; PC-3; RXF 393; SF-295; SK-MEL-5; TK-10; UO-31; A498; HL-60; MDA-MB-435; SK-MEL-28; SK-MEL-2; SR.
Common to all, as to test: growth of human tumour cells (NCI), 48 h

For the compound `O=C1CC(C(=O)N2CCCCC2)n2c(=O)n(-c3ccccc3)c(=O)n2C1` (configuration not stated), the GI50 in the assay with A549, in the assay on ACHN, in the assay with EKVX, in the assay with HT-29, in the assay on M14 and in the assay with MCF7 was > 100 µM (inactive) throughout. Moreover, the GI50 in the assay on NCI-H226, in the assay with NCI-H23, in the assay on PC-3, in the assay on RXF 393, with SF-295 and in the assay with SK-MEL-5 was > 100 µM (inactive) throughout. For the same compound, the GI50 in the assay on TK-10 and in the assay with UO-31 was > 100 µM (inactive) in each case.

Regarding `CC1(C)[C@@H]2CC[C@@]1(C)[C@H](O)[C@@H]2SCc1ccccc1`, the GI50 in the assay with A498 was < 0.01 µM (active); in the assay on A549 it was 19 µM (inactive); in the assay on ACHN, 11.7 µM (inactive); with EKVX, 15.3 µM (inactive); in the assay on HL-60, 25.5 µM (inactive); in the assay with HT-29, 14.7 µM (inactive). Further, the GI50 is 15 µM (inactive) with M14; 18.2 µM (inactive) in the assay on MDA-MB-435; 18.7 µM (inactive) in the assay with NCI-H226; 14.1 µM (inactive) in the assay on NCI-H23; 20.8 µM (inactive) with PC-3; 18.5 µM (inactive) with RXF 393. The GI50 was 18.1 µM (inactive) with SF-295; 17.5 µM (inactive) in the assay on SK-MEL-28; 18.1 µM (inactive) in the assay on SK-MEL-2; 15.4 µM (inactive) with SK-MEL-5; 28.8 µM (inactive) in the assay with SR; 22.6 µM (inactive) in the assay with TK-10. In addition, the GI50 in the assay with UO-31 was 21 µM (inactive).

As to `O=c1ccn(C2OC(CO)C(P(=O)(O)O)C2O)c(=O)[nH]1` (configuration not stated), the GI50 with A498, with A549, with ACHN, in the assay with EKVX, in the assay with HL-60 and with HT-29 was > 100 µM (inactive) in each case. The GI50 in the assay on M14, in the assay with MCF7, with NCI-H226, in the assay on NCI-H23, in the assay on PC-3 and in the assay on RXF 393 was > 100 µM (inactive) in each case. Moreover, the GI50 in the assay on SF-295, in the assay on SK-MEL-28, in the assay on SK-MEL-2, in the assay with SK-MEL-5, with SR and in the assay with TK-10 was > 100 µM (inactive) each time. The GI50 in the assay on UO-31 is > 100 µM (inactive).

`NC(=S)N/N=C1\NC(=O)/C(=C/c2ccc3c(c2)OCO3)S1`: the GI50 is 14.3 µM (inactive) in the assay with A498; 30.6 µM (inactive) in the assay with A549; 32.1 µM (inactive) in the assay with ACHN; 21.6 µM (inactive) in the assay on EKVX; 20.6 µM (inactive) in the assay on HL-60; 28.6 µM (inactive) in the assay on HT-29. In addition, the GI50 in the assay on M14 is 24.5 µM (inactive); in the assay with MCF7 it was 32.7 µM (inactive); in the assay with MDA-MB-435, 27.1 µM (inactive); in the assay with NCI-H226 it was 23.5 µM (inactive); in the assay on NCI-H23, 22.9 µM (inactive); in the assay with RXF 393, 21.1 µM (inactive). The GI50 with SF-295 was 36.5 µM (inactive); in the assay with SK-MEL-28, 24 µM (inactive); in the assay with SK-MEL-2 it was 27.2 µM (inactive); in the assay on SK-MEL-5 it was 16.3 µM (inactive); with TK-10, 40.8 µM (inactive); in the assay with UO-31 it was 30.1 µM (inactive).

For the compound `CCCCCC(/C=N/Nc1ccccc1)C(O)(C(F)(F)F)C(F)(F)F` (configuration not stated), the GI50 in the assay on A498, in the assay on A549, in the assay on ACHN, in the assay with EKVX, in the assay on HL-60 and in the assay with HT-29 was > 100 µM (inactive) in each case. Further, the GI50 in the assay on M14, with MDA-MB-435, with NCI-H226, with NCI-H23, with PC-3 and in the assay on RXF 393 was > 100 µM (inactive) throughout. Further, the GI50 with SF-295, in the assay with SK-MEL-28, in the assay on SK-MEL-2, in the assay on SK-MEL-5, in the assay with SR and with UO-31 was > 100 µM (inactive) in each case.

In the case of `CC(=O)Oc1cc(Cl)c(C)c2c1[C@H]1CC[C@]3(C)[C@@H](OC(C)=O)CC[C@H]3[C@@H]1CC2`, the GI50 is > 100 µM (inactive) with A498; > 100 µM (inactive) in the assay on A549; > 100 µM (inactive) in the assay on ACHN; > 100 µM (inactive) in the assay with EKVX; 53.6 µM (inactive) with HL-60; 61.4 µM (inactive) in the assay on HT-29. Besides, the GI50 was > 100 µM (inactive) with M14; 83.4 µM (inactive) in the assay on MCF7; > 100 µM (inactive) in the assay on MDA-MB-435; > 100 µM (inactive) in the assay on NCI-H226; > 100 µM (inactive) in the assay on NCI-H23; 74.8 µM (inactive) in the assay with RXF 393. Besides, the GI50 in the assay on SF-295, in the assay on SK-MEL-28, in the assay with SK-MEL-5, in the assay on TK-10 and in the assay with UO-31 was > 100 µM (inactive) in each case.

Take `O=C1OC(c2ccccc2)=N/C1=C\c1ccc(F)cc1`: the GI50 with A498, in the assay on A549, in the assay on ACHN, with EKVX, with HL-60 and with HT-29 was > 100 µM (inactive) in each case. In addition, the GI50 in the assay with M14 was > 100 µM (inactive); with MDA-MB-435, > 100 µM (inactive); with NCI-H226, 35.6 µM (inactive); in the assay on NCI-H23 it was > 100 µM (inactive); with PC-3 it was > 100 µM (inactive); in the assay with RXF 393, > 100 µM (inactive). In addition, the GI50 is > 100 µM (inactive) in the assay with SK-MEL-28; > 100 µM (inactive) with SK-MEL-2; 80.5 µM (inactive) with SK-MEL-5; > 100 µM (inactive) in the assay on SR; > 100 µM (inactive) in the assay with TK-10; > 100 µM (inactive) in the assay on UO-31.

As to `CC1=CP(=O)(OC(C)C)CC(C)=C1Cl` (configuration not stated), the GI50 with A498 was > 100 µM (inactive); in the assay on A549, > 100 µM (inactive); in the assay on ACHN it was > 100 µM (inactive); with EKVX, > 100 µM (inactive); in the assay with HL-60, > 100 µM (inactive); with HT-29 it was 64.4 µM (inactive). Also, the GI50 with M14 is 51.1 µM (inactive); in the assay with NCI-H226, > 100 µM (inactive); in the assay with NCI-H23 it was > 100 µM (inactive); in the assay with RXF 393, > 100 µM (inactive); in the assay with SF-295 it was > 100 µM (inactive); in the assay on SK-MEL-28 it was > 100 µM (inactive). The GI50 in the assay on SK-MEL-2 was > 100 µM (inactive); in the assay with SK-MEL-5, > 100 µM (inactive); in the assay on SR, 41.1 µM (inactive); in the assay with TK-10, > 100 µM (inactive); with UO-31, > 100 µM (inactive).

Turning to `CSc1nc(-c2cc3c(c(SC)n2)CCCCC3)cc2c1CCCCC2`, the GI50 in the assay with A498, in the assay with A549, in the assay on ACHN, in the assay on EKVX, with HL-60 and in the assay with HT-29 was > 100 µM (inactive) in each case. Also, the GI50 with M14, with MDA-MB-435, in the assay on NCI-H226, in the assay on NCI-H23, with PC-3 and in the assay on RXF 393 was > 100 µM (inactive) throughout. Besides, the GI50 in the assay on SF-295, in the assay on SK-MEL-28, in the assay on SK-MEL-2, in the assay with SK-MEL-5, in the assay on TK-10 and with UO-31 was > 100 µM (inactive) in each case.

Regarding `CN1CCc2c(sc3nc(Nc4ccccc4)n(N)c(=O)c23)C1`, the GI50 was > 100 µM (inactive) with A498; > 100 µM (inactive) in the assay with A549; > 100 µM (inactive) in the assay with ACHN; > 100 µM (inactive) in the assay with EKVX; 19.8 µM (inactive) with HL-60; 43.8 µM (inactive) in the assay with HT-29. For the same compound, the GI50 was 24.1 µM (inactive) in the assay with M14; 51.4 µM (inactive) in the assay with MCF7; > 100 µM (inactive) in the assay on NCI-H226; > 100 µM (inactive) in the assay with NCI-H23; > 100 µM (inactive) with PC-3; 63.4 µM (inactive) with RXF 393. Also, the GI50 with SF-295 was 63.1 µM (inactive); in the assay on SK-MEL-2, > 100 µM (inactive); with SK-MEL-5, 77.3 µM (inactive); in the assay on TK-10, > 100 µM (inactive); in the assay on UO-31, > 100 µM (inactive).

Consider `C=CCOc1ccc(C2c3c(n[nH]c3O)CC(O)(OCC)C2C(=O)OCC)cc1OC` (configuration not stated), for which the GI50 with A498, with A549, in the assay with ACHN, in the assay on EKVX, in the assay with HL-60 and in the assay with HT-29 was > 100 µM (inactive) each time. The GI50 in the assay on M14, in the assay with MCF7, with MDA-MB-435, with NCI-H23, with PC-3 and with SF-295 was > 100 µM (inactive) each time. Besides, the GI50 in the assay on SK-MEL-28, in the assay on SK-MEL-2, with SK-MEL-5, in the assay on TK-10 and with UO-31 was > 100 µM (inactive) each time.
